Experiment: Stability constant of the drug in relation to cyclodextrin (solubility method, Higuchi et al.)
Assay type: physicochemical
Conditions: 25°C, 24 hours shaking
Description: The stability constant of the drug in relation to cyclodextrin calculated by the solubility method is determined in the manner that, with the concentration of each drug being kept unchanged, a mixture of the drug and a cyclodextrin solution of varying concentration is shaken on a shaker at the rate of 200 cycles/min at 25°C for 24 hours to construct a solubility phase diagram of the drug at saturation in cyclodextrin solution and the stability constant is calculate by the method of Higuchi et al. [Advances in Analytical Chemistry and Instrumentation, Vol. 4, 144-148 (1965)].
The stability constant of the drug in relation to cyclodextrin was calculated applying the formula (8) on page 146, in "Advances in Analytical Chemistry and Instrumentation", Vol. 4, (1965).

Row | Stability Constant α-CyD | Stability Constant β-CyD | Structure (SMILES)
1 | 54 | 911 | CC(=O)[C@@]1(O)CC[C@H]2[C@@H]3C[C@H](C)C4=CC(=O)C=C[C@]4(C)[C@@]3(F)[C@@H](O)C[C@@]21C [Fluorometholone]
2 | 114 | 305 | CCOC(=O)O[C@]1(C(=O)OCCl)CC[C@H]2[C@@H]3CCC4=CC(=O)C=C[C@]4(C)[C@H]3[C@@H](O)C[C@@]21C [Loteprednol Etabonate]

Source: EP0709099A2, “An aqueous nasal suspension comprising cyclodextrin” (Senju Pharmaceutical Co., Ltd., priority 1994, dated 1996)
